The record followed here is publication PMC12381781, “Structural and functional insights into the selective inhibition of mutant tau aggregation by purpurin and oleocanthal in frontotemporal dementia” (Protein Science : A Publication of the Protein Society, 2025).

The assay concerns the target T1, R2R3 (WT) tau peptide (Homo sapiens, UniProt P10636).
T1 construct: Peptides spanning R2R3—including PHF6 and PHF6*; purchased ProteoGenix (Schiltigheim, France); host or cells: chemical synthesis (custom peptide)
Kind of assay: SPR titration cycle kinetics, immobilized R2R3 (WT) peptide. It is filed as binding. Here is the method: SPR experiments were conducted using the Sierra® SPR‐24 Pro system (Bruker Daltonics, Bremen, Germany), featuring a gold‐coated microfluidic array (24 detection spots, 3 × 8 format). Data acquisition and kinetic analysis were performed using SPR Analyzer 4 software.
All experiments were conducted at 25°C using PBS (pH 7.4) supplemented with 0.05% Tween‐20 and 5% DMSO as the running buffer to ensure assay reproducibility. Assay components, including 96‐well microtiter plates (Part # 1862984; Burker) and Microplate and Reservoir Sealer (Part #1862985; Burker), were used for sample handling and were compatible with the Sierra SPR®‐24 Pro system (Bruker Daltonics, Billerica, MA, USA).
WT and mutant (P301L, V287I, and N279K) tau peptides were dissolved in 10 mM sodium acetate buffer (pH 5.0; Burker) and immobilized onto High‐Capacity Amine Sensor Surfaces (Part #1862614; Bruker) using the Amine Coupling Kit (Part #1862634; Bruker). The sensor surface was preconditioned with a Surface Elution Buffer (Part #1862656; Bruker Daltonics) and 0.1M HCl to remove contaminants and improve binding specificity. […]
PUR and OLC were prepared in PBS (pH 7.4) supplemented with 0.05% Tween‐20 and 5% DMSO. Compound interactions with tau peptides were pre‐screened using a concentration range of 1–100 μM, and subsequent binding kinetics were evaluated at optimized concentrations. […] Each analyte was sequentially injected, and association and dissociation phases were monitored to determine kinetic parameters.
SPR binding kinetics were assessed using the titration cycle kinetics (TCK) assay, which included consecutive association phases followed by a single dissociation phase. […] A reference blank injection was included for double referencing, and a single dissociation curve was recorded for the highest analyte concentration.
Sensorgrams were analyzed using the Kinetic Titration model, which was integrated into the global kinetic fitting model of the SPR Analyzer 4 software. […]

T1 sequence (P10636 592-653 limits assumed): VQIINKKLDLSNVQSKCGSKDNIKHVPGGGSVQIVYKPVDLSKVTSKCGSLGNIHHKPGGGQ

In the case of `O=C1c2ccccc2C(=O)c2c(O)c(O)cc(O)c21` [PUR, purpurin], where the note is “R2R3 WT”, the off-rate (koff) (as a rule, the rate constant with which the complex falls apart) stood at 0.000265 s⁻¹ and the kon – broadly, a measure of how fast the partners come together – is 61 M⁻¹ s⁻¹. For the same compound, the affinity (R2R3 WT peptide immobilized, 25°C, PBS pH 7.4), expressed as Kd, was 4.35 µM.
